Assay results reported in US20250127170A1, “TRIAZINE HERBICIDAL COMPOUNDS” (SYNGENTA CROP PROTECTION AG, priority 2021, published 2025).

Assays:
Type in all cases: in vivo
Conditions in all cases: 312 h, evaluated after 13 days, 100=total damage to plant, 0=no damage to plant
[1] = test system: Ipomoea hederacea (IPOHE); assay: Post-emergence biological efficacy
Description: (§1) Seeds of weeds and/or crops were sown in standard soil in pots (Amaranthus palmeri (AMAPA), Chenopodium album (CHEAL), Euphorbia heterophylla (EPHHL), Ipomoea hederacea (IPOHE), Eleusine indica (ELEIN), Lolium perenne (LOLPE), Digitaria sanguinalis (DIGSA), Setaria faberi (SETFA), Echinochloa crus-galli (ECHCG)). After cultivation for 14 days under controlled conditions in a glasshouse (at 24/19° C., day/night; 16 hours light), the plants were sprayed with an aqueous spray solution derived from the formulation of the technical active ingredient in a small amount of acetone and a special solvent and emulsifier mixture referred to as IF50 (11.12% Emulsogen EL360™+44.44% N-methylpyrrolidone+44.44% Dowanol DPM glycol ether), to create a 50 g/l solution which was then diluted using 0.2% Genapol XO80 as diluent to give the desired final dose of test compound. The test plants were then grown under controlled conditions in the glasshouse (at 24/18° C., day/night; 15 hours light; 50% humidity) and watered twice daily. After 13 days the test was evaluated (100=total damage to plant; 0=no damage to plant).

[2] = test system: Euphorbia heterophylla (EPHHL); assay: Post-emergence biological efficacy
Description: as §1

Eleusine indica (ELEIN) = assay: Post-emergence biological efficacy
Description: as §1

[3] = test system: Amaranthus palmeri (AMAPA); assay: Post-emergence biological efficacy
Description: as §1

[4] = test system: Digitaria sanguinalis (DIGSA); assay: Post-emergence biological efficacy
Description: as §1

[5] = test system: Echinochloa crus-galli (ECHCG); assay: Post-emergence biological efficacy
Description: as §1

Lolium perenne (LOLPE) [6] = assay: Post-emergence biological efficacy
Description: as §1

Setaria faberi (SETFA) [7] = assay: Post-emergence biological efficacy
Description: as §1

[8] = test system: Chenopodium album (CHEAL); assay: Post-emergence biological efficacy
Description: as §1

[9] = test system: Ipomoea hederacea (IPOHE); assay: Pre-emergence biological efficacy
Description: (§2) Seeds of weeds and/or crops were sown in standard soil in pots (Amaranthus palmeri (AMAPA), Lolium perenne (LOLPE), Euphorbia heterophylla (EPHHL), Ipomoea hederacea (IPOHE), Setaria faberi (SETFA), Echinochloa crus-galli (ECHCG)). After cultivation for one day under controlled conditions in a glasshouse (at 24/19° C., day/night; 16 hours light), the plants were sprayed with an aqueous spray solution derived from the formulation of the technical active ingredient in a small amount of acetone and a special solvent and emulsifier mixture referred to as IF50 (11.12% Emulsogen EL360™+44.44% N-methylpyrrolidone+44.44% Dowanol DPM glycol ether), to create a 50 g/l solution which was then diluted using 0.2% Genapol XO80 as diluent to give the desired final dose of test compound.
(§3) The test plants were then grown under controlled conditions in the glasshouse (at 24/18° C., day/night; 15 hours light; 50% humidity) and watered twice daily. After 13 days the test was evaluated (100=total damage to plant; 0=no damage to plant).

[10] = test system: Euphorbia heterophylla (EPHHL); assay: Pre-emergence biological efficacy
Description: as §2, §3

[11] = test system: Amaranthus palmeri (AMAPA); assay: Pre-emergence biological efficacy
Description: as §2, §3

[12] = test system: Echinochloa crus-galli (ECHCG); assay: Pre-emergence biological efficacy
Description: as §2, §3

Lolium perenne (LOLPE) [13] = assay: Pre-emergence biological efficacy
Description: as §2, §3

Setaria faberi (SETFA) [14] = assay: Pre-emergence biological efficacy
Description: as §2, §3

| SMILES | pest or weed control at 250 g/ha [1] | pest or weed control at 250 g/ha [2] | pest or weed control at 250 g/ha (Eleusine indica (ELEIN)) | pest or weed control at 250 g/ha [3] | pest or weed control at 250 g/ha [4] | pest or weed control at 250 g/ha [5] | pest or weed control at 250 g/ha (Lolium perenne (LOLPE) [6]) | pest or weed control at 250 g/ha (Setaria faberi (SETFA) [7]) | pest or weed control at 250 g/ha [8] | pest or weed control at 250 g/ha [9] | pest or weed control at 250 g/ha [10] | pest or weed control at 250 g/ha [11] | pest or weed control at 250 g/ha [12] | pest or weed control at 250 g/ha (Lolium perenne (LOLPE) [13]) | pest or weed control at 250 g/ha (Setaria faberi (SETFA) [14]) |
| --- | --- | --- | --- | --- | --- | --- | --- | --- | --- | --- | --- | --- | --- | --- | --- |
| CCOC(=O)CC(CC)OC(=O)c1cc(-n2c(=O)n(C)c(=S)n(C)c2=O)c(F)cc1Cl (stereo not drawn) [Compound 1-420, (3-Ethoxy-1-ethyl-3-oxo-propyl) 2-chloro-5-(3,5-dimethyl-2,6-dioxo-4-thioxo-1,3,5-triazinan-1-yl)-4-fluoro-benzoate] | 50% | 70% | 50% | 100% | 30% | 40% | 100% | 90% | 100% | 30% | 100% | 100% | 100% | 90% | 100% |
| CCOC(=O)C(Cl)COC(=O)c1cc(-n2c(=O)n(C)c(=S)n(C)c2=O)c(F)cc1Cl (stereo not drawn) [Compound 1-675, (2-Chloro-3-ethoxy-3-oxo-propyl) 2-chloro-5-(3,5-dimethyl-2,6-dioxo-4-thioxo-1,3,5-triazinan-1-yl)-4-fluoro-benzoate] | 100% | 90% | 90% | 100% | 90% | 80% | 80% | 90% | 100% | 40% | 80% | 100% | 100% | 90% | 90% |
| CCOC(=O)[C@H](C)OC(=O)c1cc(-n2c(=O)n(C)c(=S)n(C)c2=O)c(F)cc1Cl [Compound 1-63 (S-enantiomer), [(1S)-2-ethoxy-1-methyl-2-oxo-ethyl]-2-chloro-5-(3,5-dimethyl-2,6-dioxo-4-thioxo-1,3,5-triazinan-1-yl)-4-fluoro-benzoate] | 100% | 100% | 100% | 100% | 100% | 100% | 100% | 100% | 100% | 60% | 90% | 100% | 100% | 90% | 80% |
| CCNC(=O)C(C)(C)OC(=O)c1cc(-n2c(=O)n(C)c(=S)n(C)c2=O)c(F)cc1Cl [Compound 1-168, [2-(ethylamino)-1,1-dimethyl-2-oxo-ethyl] 2-chloro-5-(3,5-dimethyl-2,6-dioxo-4-thioxo-1,3,5-triazinan-1-yl)-4-fluoro-benzoate] | 100% | 100% | 100% | 100% | 100% | 100% | 100% | 100% | 100% | 90% | 100% | 100% | 100% | 100% | 100% |
| CCOC(=O)CCNC(=O)c1cc(-n2c(=O)n(C)c(=S)n(C)c2=O)c(F)cc1Cl [Compound 1-342, Ethyl 3-[[2-chloro-5-(3,5-dimethyl-2,6-dioxo-4-thioxo-1,3,5-triazinan-1-yl)-4-fluoro-benzoyl]amino]propanoate] | 70% | 40% | 10% | 30% | 50% | 80% | 20% | 80% | 30% | 60% | 90% | 80% | 90% | 70% | 80% |
| CCOC(=O)CC1(NC(=O)c2cc(-n3c(=O)n(C)c(=S)n(C)c3=O)c(F)cc2Cl)CC1 [Compound 1-744, Ethyl 2-[1-[[2-chloro-5-(3,5-dimethyl-2,6-dioxo-4-thioxo-1,3,5-triazinan-1-yl)-4-fluoro-benzoyl]amino]cyclopropyl]acetate] | 30% | 70% | 50% | 30% | 20% | 30% | 60% | 10% | 60% | 10% | 70% | 40% | 80% | 60% | 50% |
